Paper PMC7914897, “Cytotoxic Potential of a-Azepano- and 3-Amino-3,4-SeCo-Triterpenoids” (International Journal of Molecular Sciences, 2021)
Like-named read-outs stand apart in the source and are kept apart here.

Tests used:
NSC lung cancer subpanel = assay: NCI-60 screen, subpanel; conditions: Homo sapiens; for IC (TGI): 48 h, read-out: TGI MG_MID; for GI50: read-out: GI50 MG_MID; for CC50: read-out: LC50 MG_MID
RPMI-8226 (Leukemia) = assay: NCI-60 screen (SRB, 48 h); conditions: Homo sapiens; for GI50: RPMI-8226; for IC (TGI): RPMI-8226, 48 h, read-out: TGI
SR (Leukemia) = assay: NCI-60 screen (SRB, 48 h); type: cell-based
OVCAR-5 (Ovarian cancer) = assay: NCI-60 screen (SRB, 48 h); conditions: Homo sapiens; for GI50: OVCAR-5; for IC (TGI): OVCAR-5, 48 h, read-out: TGI; for CC50: OVCAR-5, read-out: LC50
MDA-MB-435 (Melanoma) = assay: NCI-60 screen (SRB, 48 h); type: cell-based; conditions: Homo sapiens; for GI50 / CC50: MDA-MB-435; for IC (TGI): MDA-MB-435, 48 h, read-out: TGI; for CC50: read-out: LC50 (the source's name)
HL-60(TB) (Leukemia) = assay: NCI-60 screen (SRB, 48 h); type: cell-based; conditions: Homo sapiens
SF-539 (CNS cancer) = assay: NCI-60 screen (SRB, 48 h); conditions: Homo sapiens; for GI50: SF-539; for IC (TGI): SF-539, 48 h, read-out: TGI; for CC50: SF-539, read-out: LC50
HCT-116 (Colon cancer) = assay: NCI-60 screen (SRB, 48 h); conditions: Homo sapiens; for GI50: HCT-116; for IC (TGI): read-out: TGI
HT29 (Colon cancer) = assay: NCI-60 screen (SRB, 48 h); conditions: Homo sapiens; for GI50: HT-29; for IC (TGI): HT-29, 48 h, read-out: TGI
MCF-7 (breast carcinoma) = assay: SRB cytotoxicity assay, 72 h; type: cell-based, human; conditions: MCF-7, 72 h, cut-off 30 µM
Method in brief: (§1)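 Absorbance at 570 nm of SRB-stained cells gives % survival vs untreated controls, from which EC50 is determined. Treatment: 0–30 µM serial dilutions, 72 h, beginning 24 h post-seeding; DMSO ≤0.5%. TCA (10%) fixation, acetic acid wash.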

[1] = test system: HT29 (colorectal carcinoma); assay: SRB cytotoxicity assay, 72 h; type: cell-based, human; conditions: HT29, 72 h, cut-off 30 µM
Method in brief: as §1

[2] = test system: A375 (malignant melanoma); assay: SRB cytotoxicity assay, 72 h; type: cell-based, human; conditions: A375, 72 h, cut-off 30 µM
Method in brief: as §1

[3] = test system: FaDu (hypopharyngeal carcinoma); assay: SRB cytotoxicity assay, 72 h; type: cell-based, human; conditions: cut-off 30 µM
Method in brief: as §1

[4] = test system: A2780 (ovarian carcinoma); assay: SRB cytotoxicity assay, 72 h; type: cell-based, human; conditions: A2780, 72 h, cut-off 30 µM
Method in brief: as §1

BT-549 (Breast cancer) = assay: NCI-60 screen (SRB, 48 h); type: cell-based; conditions: Homo sapiens; for IC (TGI): BT-549, 48 h
SF-268 (CNS cancer) = assay: NCI-60 screen (SRB, 48 h); conditions: Homo sapiens; for GI50: SF-268; for IC (TGI): SF-268, 48 h, read-out: TGI; for CC50: SF-268, read-out: LC50
SK-OV-3 (Ovarian cancer) = assay: NCI-60 screen (SRB, 48 h); conditions: Homo sapiens; for GI50: SK-OV-3; for IC (TGI): SK-OV-3, 48 h, read-out: TGI; for CC50: SK-OV-3, read-out: LC50
SK-MEL-5 (Melanoma) = assay: NCI-60 screen (SRB, 48 h); conditions: Homo sapiens; for GI50: SK-MEL-5; for IC (TGI): SK-MEL-5, 48 h, read-out: TGI; for CC50: SK-MEL-5, read-out: LC50
U251 (CNS cancer) = assay: NCI-60 screen (SRB, 48 h); conditions: for GI50: U-251; for IC (TGI): U-251, 48 h, read-out: TGI
TK-10 (Renal cancer) = assay: NCI-60 screen (SRB, 48 h); conditions: Homo sapiens; for GI50: TK-10; for IC (TGI): TK-10, 48 h, read-out: TGI; for CC50: TK-10, read-out: LC50
IGROV1 (Ovarian cancer) = assay: NCI-60 screen (SRB, 48 h); conditions: Homo sapiens; for GI50: IGROV-1; for IC (TGI): IGROV-1, 48 h, read-out: TGI
PC-3 (Prostate cancer) = assay: NCI-60 screen (SRB, 48 h); conditions: Homo sapiens; for GI50: PC-3; for IC (TGI): PC-3, 48 h, read-out: TGI; for CC50: PC-3, read-out: LC50
CAKI-1 (Renal cancer) = assay: NCI-60 screen (SRB, 48 h); conditions: for GI50 / IC (TGI) / CC50: Homo sapiens; for GI50: CAKI-1; for IC (TGI): CAKI-1, 48 h, read-out: TGI; for CC50: CAKI-1, read-out: LC50
RXF 393 (Renal cancer) = assay: NCI-60 screen (SRB, 48 h); conditions: Homo sapiens; for GI50: RXF 393; for IC (TGI): RXF 393, 48 h, read-out: TGI; for CC50: RXF 393, read-out: LC50
CCRF-CEM (Leukemia) = assay: NCI-60 screen (SRB, 48 h); conditions: Homo sapiens

CC(C)=C1CCC=C2CC[C@]3(C)[C@H](CC[C@@H]4[C@@]5(C)CCCNC(C)(C)[C@@H]5CC[C@]43C)[C@H]21 [Compound 9]
IC (TGI) (NSC lung cancer subpanel): 3.27 µM
GI50 (NSC lung cancer subpanel): 1.68 µM
CC50 (NSC lung cancer subpanel): 6.11 µM
GI50 (RPMI-8226 (Leukemia)): 2.06 µM
IC (TGI) (RPMI-8226 (Leukemia)): 4.1 µM
TGI (SR (Leukemia)): 3.16 µM
GI50 (SR (Leukemia); Homo sapiens): 1.14 µM
GI50 (OVCAR-5 (Ovarian cancer)): 1.67 µM
IC (TGI) (OVCAR-5 (Ovarian cancer)): 3.07 µM
CC50 (OVCAR-5 (Ovarian cancer)): 5.65 µM
GI50 (MDA-MB-435 (Melanoma)): 1.85 µM
IC (TGI) (MDA-MB-435 (Melanoma)): 3.28 µM
CC50 (MDA-MB-435 (Melanoma)): 5.81 µM
GI50 (HL-60(TB) (Leukemia)): 1.7 µM
IC (TGI) (HL-60(TB) (Leukemia); 48 h): 3.5 µM
CC50 (HL-60(TB) (Leukemia); read-out: LC50 (the source's name)): 7.19 µM
GI50 (SF-539 (CNS cancer)): 1.69 µM
IC (TGI) (SF-539 (CNS cancer)): 3.13 µM
CC50 (SF-539 (CNS cancer)): 5.8 µM
GI50 (HCT-116 (Colon cancer)): 1.73 µM
IC (TGI) (HCT-116 (Colon cancer); HCT-116, 48 h): 3.31 µM
GI50 (HT29 (Colon cancer)): 0.94 µM
IC (TGI) (HT29 (Colon cancer)): 2.31 µM
EC50 (MCF-7 (breast carcinoma); Homo sapiens, MCF7, read-out: EC50): 1.52 µM
EC50 ([1]; Homo sapiens, HT-29, read-out: EC50): 1.18 ± 0.1 µM
EC50 ([2]; Homo sapiens, A-375, 72 h, read-out: EC50): 1.71 ± 0.1 µM
EC50 ([3]; Homo sapiens, read-out: EC50): 1.58 ± 0.2 µM
EC50 ([4]; Homo sapiens, read-out: EC50): 2.19 ± 0.1 µM
GI50 (BT-549 (Breast cancer); BT-549): 1.66 µM
IC (TGI) (BT-549 (Breast cancer)): 3.14 µM
CC50 (BT-549 (Breast cancer); BT-549, read-out: LC50 (the source's name)): 5.96 µM
GI50 (SF-268 (CNS cancer)): 1.97 µM
IC (TGI) (SF-268 (CNS cancer)): 3.71 µM
CC50 (SF-268 (CNS cancer)): 6.98 µM
GI50 (SK-OV-3 (Ovarian cancer)): 1.89 µM
IC (TGI) (SK-OV-3 (Ovarian cancer)): 3.5 µM
CC50 (SK-OV-3 (Ovarian cancer)): 6.46 µM
GI50 (SK-MEL-5 (Melanoma)): 1.7 µM
IC (TGI) (SK-MEL-5 (Melanoma)): 3.08 µM
CC50 (SK-MEL-5 (Melanoma)): 5.56 µM
GI50 (U251 (CNS cancer); Homo sapiens): 1.69 µM
IC (TGI) (U251 (CNS cancer); Homo sapiens): 3.17 µM
Growth % of the Most Sensitive Cell Lines (U251 (CNS cancer); U251, 1 dose 10 µM): −90.81%
GI50 (TK-10 (Renal cancer)): 1.81 µM
IC (TGI) (TK-10 (Renal cancer)): 3.37 µM
CC50 (TK-10 (Renal cancer)): 6.3 µM
GI50 (IGROV1 (Ovarian cancer)): 1.73 µM
IC (TGI) (IGROV1 (Ovarian cancer)): 3.27 µM
GI50 (PC-3 (Prostate cancer)): 1.58 µM
IC (TGI) (PC-3 (Prostate cancer)): 3.02 µM
CC50 (PC-3 (Prostate cancer)): 5.78 µM
GI50 (CAKI-1 (Renal cancer)): 1.69 µM
IC (TGI) (CAKI-1 (Renal cancer)): 3.05 µM
CC50 (CAKI-1 (Renal cancer)): 5.53 µM
GI50 (RXF 393 (Renal cancer)): 1.61 µM
IC (TGI) (RXF 393 (Renal cancer)): 3.1 µM
CC50 (RXF 393 (Renal cancer)): 5.98 µM

CC1(C)CC[C@]23CC[C@]4(C)[C@H](CC[C@@H]5[C@@]6(C)CCCNC(C)(C)[C@@H]6CC[C@]54C)[C@H]2[C@H]1OC3 [Compound 7, Azepanoallobetulin]
IC (TGI) (NSC lung cancer subpanel): 3.28 µM
GI50 (NSC lung cancer subpanel): 1.49 µM
CC50 (NSC lung cancer subpanel): 6.73 µM
GI50 (RPMI-8226 (Leukemia)): 1.94 µM
IC (TGI) (RPMI-8226 (Leukemia)): 4.58 µM
CC50 (RPMI-8226 (Leukemia); RPMI-8226, read-out: LC50): 96.8 µM
TGI (SR (Leukemia)): 4.12 µM
GI50 (SR (Leukemia); Homo sapiens): 1.49 µM
CC50 (SR (Leukemia); Homo sapiens, read-out: LC50 (the source's name)): > 100 µM
GI50 (OVCAR-5 (Ovarian cancer)): 1.6 µM
IC (TGI) (OVCAR-5 (Ovarian cancer)): 3.04 µM
CC50 (OVCAR-5 (Ovarian cancer)): 5.8 µM
GI50 (MDA-MB-435 (Melanoma)): 1.65 µM
IC (TGI) (MDA-MB-435 (Melanoma)): 3.02 µM
CC50 (MDA-MB-435 (Melanoma)): 5.55 µM
GI50 (SF-539 (CNS cancer)): 1.64 µM
IC (TGI) (SF-539 (CNS cancer)): 3.07 µM
CC50 (SF-539 (CNS cancer)): 5.78 µM
GI50 (HCT-116 (Colon cancer)): 1.52 µM
activity at 10 µM (HCT-116 (Colon cancer); HCT-116, 48 h, read-out: Growth % of the Most Sensitive Cell Lines): -99.4%
IC (TGI) (HCT-116 (Colon cancer); HCT-116, 48 h): 2.88 µM
CC50 (HCT-116 (Colon cancer); HCT-116, read-out: LC50): 5.47 µM
GI50 (HT29 (Colon cancer)): 1.78 µM
IC (TGI) (HT29 (Colon cancer)): 3.63 µM
CC50 (HT29 (Colon cancer); HT-29, read-out: LC50): 7.42 µM
EC50 (MCF-7 (breast carcinoma)): n.s.
EC50 [1]: n.s.
EC50 [2]: n.s.
EC50 [3]: n.s.
EC50 [4]: n.s.
GI50 (BT-549 (Breast cancer); BT-549): 1.68 µM
IC (TGI) (BT-549 (Breast cancer)): 3.24 µM
GI50 (SF-268 (CNS cancer)): 2.04 µM
IC (TGI) (SF-268 (CNS cancer)): 5.31 µM
CC50 (SF-268 (CNS cancer)): 31.5 µM
GI50 (CCRF-CEM (Leukemia)): 2.32 µM
IC (TGI) (CCRF-CEM (Leukemia); 48 h, read-out: TGI): 6.73 µM
CC50 (CCRF-CEM (Leukemia); read-out: LC50): > 100 µM
GI50 (SK-OV-3 (Ovarian cancer)): 2.73 µM
IC (TGI) (SK-OV-3 (Ovarian cancer)): 7.93 µM
CC50 (SK-OV-3 (Ovarian cancer)): 36.9 µM
GI50 (SK-MEL-5 (Melanoma)): 1.69 µM
IC (TGI) (SK-MEL-5 (Melanoma)): 3.06 µM
CC50 (SK-MEL-5 (Melanoma)): 5.53 µM
GI50 (U251 (CNS cancer); Homo sapiens): 1.74 µM
IC (TGI) (U251 (CNS cancer); Homo sapiens): 3.23 µM
CC50 (U251 (CNS cancer); Homo sapiens, U-251, read-out: LC50): 5.98 µM
GI50 (TK-10 (Renal cancer)): 1.89 µM
IC (TGI) (TK-10 (Renal cancer)): 3.61 µM
CC50 (TK-10 (Renal cancer)): 6.91 µM
GI50 (IGROV1 (Ovarian cancer)): 1.79 µM
IC (TGI) (IGROV1 (Ovarian cancer)): 3.48 µM
CC50 (IGROV1 (Ovarian cancer); IGROV-1, read-out: LC50): 6.78 µM
GI50 (PC-3 (Prostate cancer)): 1.61 µM
IC (TGI) (PC-3 (Prostate cancer)): 3.17 µM
CC50 (PC-3 (Prostate cancer)): 6.25 µM
Growth % of the Most Sensitive Cell Lines (CAKI-1 (Renal cancer); CAKI-1, 1 dose 10 µM): −92.03%
GI50 (CAKI-1 (Renal cancer)): 1.62 µM
IC (TGI) (CAKI-1 (Renal cancer)): 2.97 µM
CC50 (CAKI-1 (Renal cancer)): 5.45 µM
GI50 (RXF 393 (Renal cancer)): 1.56 µM
IC (TGI) (RXF 393 (Renal cancer)): 2.98 µM
CC50 (RXF 393 (Renal cancer)): 5.69 µM
